The values below come from patent US10179939B2, “Growth-independent detection of cells” (GeneWeave Biosciences, Inc., priority 2014, dated 2019).

In one test the test system is MRSA. The test can be described thus: Non-replicative transduction particle luxAB reporter assay with cefoxitin. The test is classed as cell-based, S. aureus. To be noted: cells phenotypically resistant to cefoxitin (MRSA); cefoxitin added prior to, simultaneously with, or after transduction particles. An excerpt:
(§1) To test the functionality of non-replicative transduction particles as reporters for detecting the presence of S. aureus cells, various MSSA/MRSA reporter assays were developed. In an embodiment, a non-replicative transduction particle was developed from a S. aureus-specific bacteriophage, and the bacterial luciferase genes luxAB under the control of a constitutive promoter were incorporated. When the non-replicative transduction particle delivered the reporter nucleic acid into S. aureus, the constitutive promoter expressed luxAB suitable for reporting on the presence of a viable S. aureus.
(§2) In addition, the antibiotic cefoxitin was added prior to, simultaneously with, or after the addition of the transduction particles to a sample containing S. aureus cells.
Background: Reporter assays use an easily measured gene product as a stand-in for the process of interest.

For a further test, the system named is MSSA. The description is as above. To be noted: cells not phenotypically resistant to cefoxitin (MSSA); cefoxitin added prior to, simultaneously with, or after transduction particles. The test is classed as cell-based, S. aureus.
Source text: as §1, §2

Molecules are shown by their SMILES.

For `CO[C@@]1(NC(=O)Cc2cccs2)C(=O)N2C(C(=O)O)=C(COC(N)=O)CS[C@@H]21` [cefoxitin], the values for the luminescence result in the test with MRSA and in the test with MSSA were “increased or detectable luminescence” and “decreased or eliminated”, respectively.
